# From patent US20040097420A1, “Proteasome regulation of NF-kB activity” (Harvard College, priority 1994, published 2004)
# Non-standard residues stand in square brackets, D forms with d. Residues, ends and D or L forms follow the SMILES beside them. ξ: configuration not given here. *: point of attachment. Tyr(3,5-Br2) = N[C@@H](Cc1cc(Br)c(O)c(Br)c1)C(=O)O; 2Nal = N[C@@H](Cc1ccc2ccccc2c1)C(=O)O; Ile(3ξ) = CCC(C)[C@H](N)C(=O)O; AllylGly = C=CC[C@H](N)C(=O)O; Phg = N[C@H](C(=O)O)c1ccccc1; Nle = CCCC[C@H](N)C(=O)O; Nva = CCC[C@H](N)C(=O)O; Abu = CC[C@H](N)C(=O)O; Cbz = O=C(OCc1ccccc1)*
# Assays:
# 26S proteasome = molecular target: T1, 26S proteasome (Oryctolagus cuniculus, UniProt G1T4Q9); experiment: Inhibition of the 26S proteasome (kinetic experiments, Ki); type: biochemical; conditions: Rabbit muscle; substrate Suc-LLVY-AMC; [Mg:ATP] = 2 mM
# T1 sequence (G1T4Q9 1-263): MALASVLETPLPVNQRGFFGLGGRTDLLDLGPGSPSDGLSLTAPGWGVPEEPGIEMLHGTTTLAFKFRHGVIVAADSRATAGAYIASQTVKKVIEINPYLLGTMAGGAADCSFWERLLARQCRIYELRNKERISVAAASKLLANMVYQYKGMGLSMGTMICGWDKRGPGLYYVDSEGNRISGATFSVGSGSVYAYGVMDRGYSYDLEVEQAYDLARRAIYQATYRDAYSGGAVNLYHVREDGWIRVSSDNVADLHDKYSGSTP
# Excerpt: (§1) Tables I-III summarize results from kinetic experiments that measured the inhibition of the 20S and 26S proteasomes, as well as cathepsin B and calpain. In these tables, Ki values are reported, which are dissociation constants for the equilibrium that is established when enzyme and inhibitor interact to form the enzyme:inhibitor complex.
# (§2) The substances and assay conditions are briefly summarized in the footnotes to Table I. MG 101 and MG 102, also known as Calpain Inhibitor I and II, were purchased from Calbiochem as catalogue products.
# [1] = molecular target: calpain, 80 kD catalytic subunit; experiment: Inhibition of calpain (Ki); type: biochemical; conditions: Rabbit muscle, substrate Suc-LLVY-AMC, [CaCl2] = 1 mM, [DTT] = 2 mM, pH 7.8, 20° C.
# Excerpt: as §1
# cathepsin B = molecular target: T2, cathepsin B (Bos taurus, UniProt P07688); experiment: Inhibition of cathepsin B (Ki); type: biochemical; conditions: Bovine spleen; substrate Z-RR-AMC; [DTT] = 2 mM, [EDTA] = 5 mM, pH 5.5, 37° C.; read-out: Ki Cat B
# T2 construct: Bovine spleen; Substrate: Z-RR-AMC; from tissue; host or cells: bovine spleen
# Excerpt: as §1
# 20S Proteasome [2] = molecular target: T3, 20S Proteasome (Oryctolagus cuniculus, UniProt G1T4Q9); experiment: Inhibition of the 20S proteasome (kinetic experiments, Ki); type: biochemical, Rabbit; parameters: Ki 20 S; substrate Suc-LLVY-AMC; conditions: Rabbit muscle, SDS-activated; substrate Suc-LLVY-AMC
# T3 sequence (G1T4Q9 1-263): T1 sequence (G1T4Q9 1-263)
# Excerpt: as §1, §2
# (§3) Table V summarizes data for the inhibition of the 20S proteasome by various tripeptide aldehyde inhibitors.
# 20S proteasome [3] = molecular target: T4, 20S proteasome (Oryctolagus cuniculus, UniProt G1T4Q9); experiment: as above; type: biochemical, Rabbit; conditions: Table V, miscellaneous tripeptide aldehydes; 20S proteasome
# T4 sequence (G1T4Q9 60-263): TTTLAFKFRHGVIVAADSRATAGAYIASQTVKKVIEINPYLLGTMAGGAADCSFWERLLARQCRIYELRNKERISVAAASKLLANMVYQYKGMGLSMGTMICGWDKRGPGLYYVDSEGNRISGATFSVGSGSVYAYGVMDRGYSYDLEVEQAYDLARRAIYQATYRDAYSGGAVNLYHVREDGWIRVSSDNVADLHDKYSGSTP
# Excerpt: as §1, §2, §3
SMILES,Ki (26S proteasome) [µM],Ki [1] [µM],Ki (cathepsin B) [µM],Ki (20S Proteasome [2]) [µM],Ki (20S proteasome [3]) [µM]
"COC(=O)C(=O)[C@H](Cc1ccccc1)NC(=O)[C@H](CC(C)C)NC(=O)[C@H](CC(C)C)NC(=O)OCc1ccccc1 [MG 113, Z-Leu-Leu-Phe-C(O)—OMe]",1.3,0.045,< 0.004,0.69,
"CC(C)C[C@H](NC(=O)OCc1ccccc1)C(=O)N[C@@H](CC(C)C)C(=O)N[C@H](C=O)Cc1ccc2ccccc2c1 [MG 121, Z-Leu-Leu-Nal-H] (Cbz-Leu-Leu-[2Nal]-aldehyde)",0.07,0.062,0.073,0.025,
CC(C)C[C@H](NC(=O)OCc1ccccc1)C(=O)N[C@@H](CC(C)C)C(=O)N[C@H](C=O)C(C)C [MG 120] (Cbz-Leu-Leu-Val-aldehyde),0.56,0.014,0.036,0.094,
"CCC[C@@H](C=O)NC(=O)[C@H](CC(C)C)NC(=O)[C@H](CC(C)C)NC(=O)OCc1ccccc1 [MG 115, Z-Leu-Leu-Nva-H] (Cbz-Leu-Leu-[Nva]-aldehyde)",0.078,0.01,0.01,0.021,
CC[C@@H](C=O)NC(=O)[C@H](CC(C)C)NC(=O)[C@H](CC(C)C)NC(=O)OCc1ccccc1 [MG 119] (Cbz-Leu-Leu-[Abu]-aldehyde),0.28,0.015,0.018,0.05,
"CCCC[C@@H](C=O)NC(=O)[C@H](CC(C)C)NC(=O)[C@H](CC(C)C)NC(=O)OCc1ccccc1 [MG 114, Z-Leu-Leu-Nle-H] (Cbz-Leu-Leu-[Nle]-aldehyde)",0.12,0.012,0.007,0.047,
"CSCC[C@@H](C=O)NC(=O)[C@H](CC(C)C)NC(=O)[C@H](CC(C)C)NC(C)=O [MG 102, reference compound] (Ac-Leu-Leu-Met-aldehyde)",28,0.12,0.094,1,
CC(C)C[C@H](NC(=O)OCc1ccccc1)C(=O)N[C@@H](CC(C)C)C(=O)NCC=O [MG 118] (Cbz-Leu-Leu-Gly-aldehyde),28,0.12,0.094,3.8,
"CCCC[C@@H](C=O)NC(=O)[C@H](CC(C)C)NC(=O)OCc1ccccc1 [MG 105, Z-Leu-Nle-H, reference compound]",,,,15,
CC(C)C[C@H](NC(=O)OCc1ccccc1)C(=O)N[C@@H](CC(C)C)C(=O)N[C@@H](C)C=O [MG 111] (Cbz-Leu-Leu-Ala-aldehyde),0.69,0.011,0.006,0.21,

# The remaining lines, values ahead:
Ki (26S proteasome) [µM],Ki [1] [µM],Ki (cathepsin B) [µM],Ki (20S Proteasome [2]) [µM],Ki (20S proteasome [3]) [µM],SMILES
,,,,0.02,C=CC[C@@H](C=O)NC(=O)[C@H](CC(C)C)NC(=O)[C@H](CC(C)C)NC(=O)OCc1ccccc1 [MG 139] (Cbz-Leu-Leu-[AllylGly]-aldehyde)
,,,,0.006,CC(C)C[C@H](NC(=O)OCc1ccccc1)C(=O)N[C@@H](CC(C)C)C(=O)N[C@H](C=O)Cc1ccc(O)cc1 [MG 131] (Cbz-Leu-Leu-Tyr-aldehyde)
,,,,0.051,"CC(C)C[C@H](NC(=O)OCc1ccccc1)C(=O)N[C@@H](CC(C)C)C(=O)N[C@H](C=O)Cc1cc(Br)c(O)c(Br)c1 [MG 160] (Cbz-Leu-Leu-[Tyr(3,5-Br2)]-aldehyde)"
,,,,0.1,CCC(C)[C@@H](C=O)NC(=O)[C@H](CC(C)C)NC(=O)[C@H](CC(C)C)NC(=O)OCc1ccccc1 (stereo partly drawn) [MG 134] (Cbz-Leu-Leu-[Ile(3ξ)]-aldehyde)
,,,,0.47,CC(C)C[C@H](NC(=O)OCc1ccccc1)C(=O)N[C@@H](CC(C)C)C(=O)N[C@H](C=O)c1ccccc1 [MG 133] (Cbz-Leu-Leu-[Phg]-aldehyde)
